Measurements reported in US20100240754A1, “UNSATURATED FATTY AMINO ACID DERIVATIVES AND USE THEREOF IN DERMAL COSMETOLOGY” (Pierre Fabre Demo-Cosmetique, priority 2007, published 2010).
“Also recorded” adds a separate entry of the source.

What was measured:
production of PG6KF1α = experiment: Production of prostaglandin 6KF1α by keratinocytes stimulated with calcium ionophore A23187 (ELISA); assay type: cell-based; details: for inhibition at 3 µg/mL: Keratinocyte, read-out: Inhibitory activity % of molecules evaluated on the production of PG6KF1α; for effective dose 45 (DE45), production of PG6KF1α: keratinocytes stimulated with A23187; for anti-inflammatory potentialities (PG6KF1α production), in words: summary of Table 1 data
Method: The prostaglandin PG6KF1 alpha, is one of the major metabolites produced by the stimulated keratinocyte, and representative of the modulation of the production of metabolites of the metabolism of arachidonic acid stemming from the cyclo-oxygenase route.
The suspension of keratinocytes in DMEM with 10% FCS is distributed in plates of 6 wells (1.2 106 cells/well), and incubated for 16 hours at 37° C. in an atmosphere with 5% CO2. The keratinocytes are then rinsed with PBS in order to eliminate non-adherent cells and then exposed to the products to be tested included in DMEM without FCS (which might interfere in the assay).
The tested culture concentration is 3 μg/mL. It was retained after a preliminary test for evaluating cytotoxicity (neutral red) and it is not cytotoxic.
For each treatment, 3 wells were produced. The cells were pre-incubated for 60 min with the products to be tested and then an agent stimulating the cascade of arachidonic acid, the calcium ionophore, is added for 5 hours: the calcium ionophore A23187 is used at a concentration of 1 μM.
After these 5 hours of culture, the culture media of each of the wells are recovered, centrifuged at 3,000 rpm and stored at −80° C.
The production of prostaglandin 6KF1α for each of the tests is measured with the Elisa kit EUROMEDEX.
The results are gathered in Table 1 and are expressed in percentage of activity/stimulated control.

fibroblast line L929 = experiment: Test of TBARS: lipid peroxidation after H2O2-Fe2+/Fe3+ stress; assay type: cell-based, murine; details: for inhibition at 20 pg/mL: Mus musculus, Dose = 0.02 ng/mL, L929, 16 hours pretreatment, H2O2-Fe2+/Fe3+ (200 μM-1 mM) 1 hour, TBARS, read-out: % of protection of membrane lipids, Average; for antiradical activity and protection of cell membranes, in words: L929, TBARS test, conclusion from Table 4
Source text: In order to evaluate membrane alteration, we have measured lipid peroxidation by an assay in vitro of the complexes between lipid oxidation products and thiobarbituric acid. These complexes are called TBARS (Thiobarbituric Acid Reactive Substances) and give the name to the test: Test of TBARS.
In order to mimic a chemical oxidative stress, we treated a fibroblast line, L929, with a complex composed of hydrogen peroxide (H2O2) and of iron (Fe^2+/Fe^3+) thereby regenerating Fenton's reaction, source of FORs and more particularly of hydroxyl radicals)(OH^0) (D. A. Vessey et al., 1992):
The products were evaluated on the murine fibroblast line L929. The cells were pretreated with the different concentrations of products for 16 hours and were then stimulated with the complex H2O2—Fe^2+/Fe^3+ (200 μM-1 mM) for 1 hour.
Mother solutions: 100 mg/mL, ethanol, 4° C. Final solutions: 0.02 ng/mL.
Peroxidation of membrane lipids is analyzed by measuring the TBARS (Procedure Ref. PL No. 2, according to Morlière et al., 1991).
In an acid medium, at 95° C., complexes noted as TBARS for Thio Barbituric Acid Reactive Substance are formed, between the lipid oxidation products (malonic dialdehyde or MDA) and thiobarbituric acid (TBA) which may be assayed by fluorescence relatively to a standard range with MDA. The dosage of the TBARS is then expressed in pmol/μg of proteins. The proteins and the TBARS are assayed in the intracellular medium.
From the calculation of the TBARS in pmol/μg of proteins, we calculated the protective efficiency of different products against oxidation of membrane lipids.
Seven independent experiments were conducted. During these experiments, various compounds were evaluated (with the test, it is not possible to evaluate more than 10 molecules at the same time). The compounds which were evaluated several times were selected according to the results obtained in the other test also measuring antiradical activity (test for assaying oxygen active species, OASes).

[1] = 3 μg/mL, keratinocytes, 60 min pre-incubation, calcium ionophore A23187 1 μM for 5 hours, percentage of activity/stimulated control

SMILES	inhibition at 3 µg/mL (production of PG6KF1α; [1])	inhibition at 20 pg/mL (fibroblast line L929)	Inhibitory activity % of molecules evaluated on the production of PG6KF1α (production of PG6KF1α; [1])	effective dose 45 (DE45), production of PG6KF1α (production of PG6KF1α)	anti-inflammatory potentialities (PG6KF1α production), in words (production of PG6KF1α)	antiradical activity and protection of cell membranes, in words (fibroblast line L929)
Cl.NCCC/C=C/C(=O)O [Compound No. 1, (E)-6-amino-hex-2-enoic acid]	< 0%	13.4%	–	–	–	–
NCCC/C=C(/F)C(=O)O [Compound No. 2, (E)-6-amino-2-fluoro-hex-2-enoic acid]	–	7.63%	~	–	–	–
Cl.NCCCC/C=C/C(=O)O [Compound No. 4, (E)-7-amino-hept-2-enoic acid]	18%	8.75%	–	–	–	–
NCCCCC=C(F)C(=O)O [Compound No. 5, (Z+E)-7-amino-2-fluoro-hept-2-enoic acid]	41%	36.3%	–	25 µg/mL	anti-inflammatory potentialities	significant antiradical activity
Cl.NCCCCC/C=C/C(=O)O [Compound No. 7, (E)-8-amino-oct-2-enoic acid]	36%	48.3%	–	–	anti-inflammatory potentialities	significant antiradical activity; also recorded: most significant antiradical activity
Cl.NCCCCCC/C=C/C(=O)O [Compound No. 8, (E)-9-amino-non-2-enoic acid]	8%	56.6%	–	–	–	significant antiradical activity; also recorded: most significant antiradical activity
Cl.NCCCCCCC=C(F)C(=O)O [Compound No. 9, 9-amino-2-fluoro-non-2-enoic acid]	17%	27.5%	–	–	–	significant antiradical activity
Cl.NCCCCCCCCCCCC=C(F)C(=O)O [Compound No. 10, 14-amino-2-fluoro-tetradec-2-enoic acid]	38%	23.9%	–	–	anti-inflammatory potentialities	significant antiradical activity
Cl.NCCCCCCCCCCC/C=C/C(=O)O [Compound No. 11, (E)-14-amino-tetradec-2-enoic acid]	40%	-26.3%	–	10 µg/mL	anti-inflammatory potentialities	–
NCCC/C=C(\F)C(=O)O [compound 3, (Z)-6-amino-2-fluoro-hex-2-enoic acid]	22%	-4%	–	–	–	–
NCCCC/C=C(\F)C(=O)O [compound 6, (Z)-7-amino-2-fluoro-hept-2-enoic acid]	25%	49.8%	–	–	–	significant antiradical activity; also recorded: most significant antiradical activity
